Laboratory results: patent US20260027068A1, “METHODS OF ADM[…]-KETAMINE” (Perception Neuroscience, Inc., priority 2022, published 2026)

Experiment: Respiratory rate (vital signs)
Settings: 60 mg
Procedure: The Investigational Medicinal Product (IMP) R(−)-ketamine hydrochloride in sterile water for intravenous injection was investigated as an […] treatment of TRD. The International Union of Pure and Applied Chemistry (IUPAC) name is of the IMP is (2R)-2-(2-chlorophenyl)-2-(methylamino)cyclohexan-1-one. Subjects received the solution at either 30 mg or 60 mg dose, or a placebo. The IMP or placebo was administered on Day 1 as a single IV infusion via an electronic infusion pump over 40 minutes. The duration of study participation for each subject was up to 29 days including a screening period, a 3-day in-clinic visit, and 2 follow-up visits. 101 subjects were enrolled in approximately 20 study centers in the EU and the US.
Tympanic or temporal temperature, heart rate, blood pressure (SBP/DBP), respiratory rate, and SpO2 were assessed. Blood pressure and pulse measurements will be assessed with a completely automated device while the subject is supine or semi-supine. Manual techniques will be used only if an automated device is not available. Blood pressure and pulse measurements should be preceded by at least 5 minutes of rest for the subject in a quiet setting without distractions (e.g., television, cell phones). An abnormal blood pressure value at screening may be repeated once after 5 minutes of relaxation to determine the subject's eligibility. Blood pressure was recorded using the same arm and position (supine or semi-supine) throughout the study, where possible. Vital signs (to be taken before blood collection for laboratory tests) consisted of 1 pulse and 3 blood pressure measurements (3 consecutive blood pressure readings will be recorded at intervals of at least 1 minute). The average of the 3 blood pressure readings was recorded in the CRF. A pulse oximeter was used to measure peripheral capillary oxygen saturation (SpO2) continuously from pre-dose until 4-hours post-dose. A pulse oximeter was clipped onto the finger or foot of the subject, and light will be sent through the finger or foot and measured on the other side.
In these tables, baseline value is defined as the last non-missing value prior to study drug administration.

Q: What does the source list for CN[C@@]1(c2ccccc2Cl)CCCCC1=O.Cl [R(−)-ketamine, (2R)-2-(2-chlorophenyl)-2-(methylamino)cyclohexan-1-one]?
A: Respiratory Rate, Max (Day 1, 15 minutes): 18 breaths/minute; Respiratory Rate, Mean (Day 1, 15 minutes): 15.5 breaths/minute; Respiratory Rate, Median (Day 1, 15 minutes): 15.0 breaths/minute; Respiratory Rate, Min (Day 1, 15 minutes): 14 breaths/minute; Respiratory Rate, Max (Day 1, 40 minutes): 23 breaths/minute; Respiratory Rate, Mean (Day 1, 40 minutes): 15.9 breaths/minute; Respiratory Rate, Median (Day 1, 40 minutes): 16.0 breaths/minute; Respiratory Rate, Min (Day 1, 40 minutes): 12 breaths/minute; Respiratory Rate, Max (Day 1, 60 minutes): 16 breaths/minute; Respiratory Rate, Mean (Day 1, 60 minutes): 15.2 breaths/minute; Respiratory Rate, Median (Day 1, 60 minutes): 16.0 breaths/minute; Respiratory Rate, Min (Day 1, 60 minutes): 12 breaths/minute; Respiratory Rate, Max (Day 1, 2 hours): 19 breaths/minute; Respiratory Rate, Mean (Day 1, 2 hours): 15.5 breaths/minute; Respiratory Rate, Median (Day 1, 2 hours): 16.0 breaths/minute; Respiratory Rate, Min (Day 1, 2 hours): 11 breaths/minute; Respiratory Rate, Max (Day 1, 4 hours): 20 breaths/minute; Respiratory Rate, Mean (Day 1, 4 hours): 15.9 breaths/minute; Respiratory Rate, Median (Day 1, 4 hours): 16.0 breaths/minute; Respiratory Rate, Min (Day 1, 4 hours): 12 breaths/minute; Respiratory Rate, Max (Day 1, 6 hours): 20 breaths/minute; Respiratory Rate, Mean (Day 1, 6 hours): 15.7 breaths/minute; Respiratory Rate, Median (Day 1, 6 hours): 16.0 breaths/minute; Respiratory Rate, Min (Day 1, 6 hours): 12 breaths/minute; Respiratory Rate, Max (Day 2 - Discharge): 20 breaths/minute; Respiratory Rate, Mean (Day 2 - Discharge): 15.9 breaths/minute; Respiratory Rate, Median (Day 2 - Discharge): 16.0 breaths/minute; Respiratory Rate, Min (Day 2 - Discharge): 12 breaths/minute; Respiratory Rate, Max (Day 8): 18 breaths/minute; Respiratory Rate, Mean (Day 8): 15.7 breaths/minute; Respiratory Rate, Median (Day 8): 16.0 breaths/minute; Respiratory Rate, Min (Day 8): 12 breaths/minute; Respiratory Rate, Max (Day 15): 20 breaths/minute; Respiratory Rate, Mean (Day 15): 15.8 breaths/minute; Respiratory Rate, Median (Day 15): 16.0 breaths/minute; Respiratory Rate, Min (Day 15): 12 breaths/minute; Respiratory Rate, Change from Baseline, Max (to Day 1, 15 minutes): 2 breaths/minute; Respiratory Rate, Change from Baseline, Mean (to Day 1, 15 minutes): −0.6 breaths/minute; Respiratory Rate, Change from Baseline, Median (to Day 1, 15 minutes): −1.0 breaths/minute; Respiratory Rate, Change from Baseline, Min (to Day 1, 15 minutes): −4 breaths/minute; Respiratory Rate, Change from Baseline, Max (to Day 1, 40 minutes): 4 breaths/minute; Respiratory Rate, Change from Baseline, Mean (to Day 1, 40 minutes): −0.0 breaths/minute; Respiratory Rate, Change from Baseline, Median (to Day 1, 40 minutes): 0.0 breaths/minute; Respiratory Rate, Change from Baseline, Min (to Day 1, 40 minutes): −4 breaths/minute; Respiratory Rate, Change from Baseline, Max (to Day 1, 60 minutes): 1 breaths/minute; Respiratory Rate, Change from Baseline, Mean (to Day 1, 60 minutes): −0.8 breaths/minute; Respiratory Rate, Change from Baseline, Median (to Day 1, 60 minutes): −1.0 breaths/minute; Respiratory Rate, Change from Baseline, Min (to Day 1, 60 minutes): −4 breaths/minute; Respiratory Rate, Change from Baseline, Max (to Day 1, 2 hours): 2 breaths/minute; Respiratory Rate, Change from Baseline, Mean (to Day 1, 2 hours): −0.5 breaths/minute; Respiratory Rate, Change from Baseline, Median (to Day 1, 2 hours): 0.0 breaths/minute; Respiratory Rate, Change from Baseline, Min (to Day 1, 2 hours): −4 breaths/minute; Respiratory Rate, Change from Baseline, Max (to Day 1, 4 hours): 3 breaths/minute; Respiratory Rate, Change from Baseline, Mean (to Day 1, 4 hours): −0.1 breaths/minute; Respiratory Rate, Change from Baseline, Median (to Day 1, 4 hours): 0.0 breaths/minute; Respiratory Rate, Change from Baseline, Min (to Day 1, 4 hours): −4 breaths/minute; Respiratory Rate, Change from Baseline, Max (to Day 1, 6 hours): 6 breaths/minute; Respiratory Rate, Change from Baseline, Mean (to Day 1, 6 hours): −0.2 breaths/minute; Respiratory Rate, Change from Baseline, Median (to Day 1, 6 hours): 0.0 breaths/minute; Respiratory Rate, Change from Baseline, Min (to Day 1, 6 hours): −8 breaths/minute; Respiratory Rate, Change from Baseline, Max (to Day 2 - Discharge): 4 breaths/minute; Respiratory Rate, Change from Baseline, Mean (to Day 2 - Discharge): −0.0 breaths/minute; Respiratory Rate, Change from Baseline, Median (to Day 2 - Discharge): 0.0 breaths/minute; Respiratory Rate, Change from Baseline, Min (to Day 2 - Discharge): −4 breaths/minute; Respiratory Rate, Change from Baseline, Max (to Day 8): 4 breaths/minute; Respiratory Rate, Change from Baseline, Mean (to Day 8): −0.2 breaths/minute; Respiratory Rate, Change from Baseline, Median (to Day 8): 0.0 breaths/minute; Respiratory Rate, Change from Baseline, Min (to Day 8): −6 breaths/minute; Respiratory Rate, Change from Baseline, Max (to Day 15): 6 breaths/minute; Respiratory Rate, Change from Baseline, Mean (to Day 15): −0.1 breaths/minute; Respiratory Rate, Change from Baseline, Median (to Day 15): 0.0 breaths/minute; Respiratory Rate, Change from Baseline, Min (to Day 15): −3 breaths/minute
